In one data set the test system is Ih channel. To be noted: cited from earlier work.
Data set [1] has as its system marble burying behaviour in mice. The data set can be described thus: Mouse Marble Burying Assay (BUR). Format: in vivo. The settings on record: Mus musculus, sc. The protocol:
This assay was carried out essentially according to the procedure described by Treit et al. (1981) Pharmacol Biochem Behav; 15; 619-626.
The results are presented as BUR ED50 (sc). This is the effective dose causing 50% inhibition of burying compared to control mice.

Data set [2] has as its system hyperpolarisation-activated inward cation current Ih in dorsal root ganglion (DRG) cells. The experiment in a line: Inhibition of hyperpolarisation-activated cation current (Ih), whole cell voltage clamp on cultured DRG cells. The settings on record: at 1E-5 M. Format: cell-based, rat.
Data set [3] shares this test system. Described as above. The settings on record: (-) log concentration at which Ih activation rate constant kact is reduced by 50%; mean; rat DRG cells. The class given is cell-based. The protocol: A) determining the potency of compounds to inhibit the hyperpolarisation-activated inward cation current Ih in dorsal root ganglion (DRG) cells of the rat; the effect is measured as the decrease in Ih activation rate and is expressed as the half maximal effect concentration (IC50) or the negative logarithm of this IC50 (known as pIC50).
To obtain E15 DRGs, pregnant Wistar rats were sacrificed. Embryos were removed and spinal cords with DRG attached to both sides were dissected out and collected in Hanks balanced salt solution (HBSS; Gibco). DRG were separated from the spinal cord and pooled in HBSS without Ca^2+ and Mg^2+. Dissociation of intact DRG was started by incubation with a 0.25% trypsin solution for 30 min at 37° C. Trypsination was stopped by diluting the enzyme and centrifugation (1 min; 2500 rpm). After aspiration of the supernatant the tissue pellet was triturated with DMEMF10 (DMEM supplemented with 10% fetal bovine serum (Hyclone), 6 g/l glucose and 2 mM I-glutamine) and centrifuged for 10 min at 1700 rpm. Dissociated DRG cells were resuspended in culture medium (DMEMF10 with 50 ng/ml NGF 2.5S (Alomone labs)), counted and plated out in a density of 1-2.105 cells on collagen (50 μg/ml) and/or poly-l-lysine (10-20 μg/ml) coated glass coverslips in 24-well tissue culture plates. Plates were kept in a humidified incubator at 37° C. and 5% CO2 for 72 hrs. Glial cell proliferation was inhibited when necessary by adding cytosine arabinoside (Ara-c) at a concentration of 5.10^−7 M. After 3 days fresh culture medium was administered. Medium was subsequently changed every […].
DRG cells were sampled with the whole cell voltage clamp method. Glass electrodes were pulled from thick-walled borosilicate capillaries with filament (1 mm outer diameter). Pipette resistance was 2-5 MΩ. Series resistance (5-15 MΩ) was compensated for to ensure so that potential errors made in the determination of the actual membrane potential were less then 2 mV. Cell capacitance (10-75 pF) compensation was used to compensate for capacitive currents. The extracellular solution contained (in mM): NaCl 140; KCl 5; CaCl2 2; MgCl2 1; D(+) glucose 5.6;HEPES 5; Sucrose 30; pH=7.4. The pipette solution contained (in mM): K-gluconate 119; NaCl 5; KCl 13; CsCl 2; CaCl2 1; EGTA 10;HEPES 10; pH=7.2. Cells were preincubated for more then 1½ hours with different concentrations (1E-9 to 1E-4 M) of test compound dissolved in extracellular solution at room temperature (20° C.) in normal air. Larger cells that appeared round with a pronounced halo under phase-contrast microscopy were selected because almost all of them expressed Ih. Data were acquired with a Digidata 1200® analogue to digital interface using PCLAMP® software (both from Axon Instruments). For Ih activation the cell was held at −63 mV and stepped to −123mV (potentials after correction for liquid junction potential). Current traces were selected for soundness, averaged and fitted to a first order exponential using PCLAMP® software (fit between 60 and 950 ms to avoid biasing by transient currents). Activation time constants (τ) for Ih under different drug concentrations were derived from this fit. The activation rate constant for Ih is defined as kact=1/τ.
The pIC50 is the (-) log concentration of a compound at which the Ih activation rate constant kact is reduced by 50%. pIC50 for a compound could be estimated adequately by fitting kact to the logarithm of the concentration with a logistic function using PRISM® software (Graphpad Inc.). The function chosen is:
kact=A/(1+10^ (log([compound])+pIC50)); A is kact [compound]=0M.
Averaging all control measurements yields that A=3.52 s^−1 and the maximum kact was forced to this value for all compounds in this study. The Hill slope that normally is estimated in concentration-effect relations appeared to be about 1 and was subsequently fixed to this value. […]

In data set [4] the test system is REM sleep in male Wistar rats. The data set can be described thus: Rat Sleep Analysis: suppression of REM sleep. The class given is in vivo. To be noted: first 3 hours after drug administration. The protocol: Suppression of REM sleep in male Wistar rats was measured after treatment with compounds according to the invention or reference antidepressants using the methods described by Ruigt et al.(Electroencephalography and clinic Neurophysiology, 1989, 73, pages 52-63 & 64-71)
The values reported in Table 1 are expressed as percentage change over placebo for the amount of REM sleep in the first 3 hours after drug administration.

The mark [5] stands for this setting: effective dose causing 50% inhibition of burying compared to control mice, read-out: BUR ED50 (SC).

Like-named read-outs stand apart in the source and are kept apart here.

The term melting point denotes the temperature, or range, at which the solid turns liquid. A word on the ED50: it is the dose that gives a 50% effect, or the effect in half of the subjects. The term IC50 denotes the concentration at which inhibition is half-maximal.

Take `[Cs]` [caesium]: the “concentration blocking Ih” value in the data set with Ih channel (Pape 1996) is 1 to 5 mM.
Consider `C=CCC(N)c1ccccc1-c1noc2ncccc12.O=C(O)/C=C\C(=O)O` (stereo not drawn) [16 (5), 2-(isoxazolo[5,4-b]pyridin-3-yl)-α-2-propenyl-benzenemethanamine (Z)-butenedioate], for which the melting point is 187 to 188 °C (dec.). Besides, the 50% effective dose (ED50) in data set [1] (Table 3, read-out: BUR s.c. ED50) came out at 1.7 mg/kg. In addition, the “Ih amplitude, inhibition” value in data set [2] is given as 90% inhibition at 1E-5.
`C=CC[C@H](N)c1ccccc1-c1noc2ccccc12.Cl` [Example 13, (S)-2-(1,2-Benzisoxazol-3-yl)-α-2-propenyl-benzenemethanamine Hydrochloride] gave a melting point of 191 °C. The pIC50-Ih in data set [3] was 6.48. For the same molecule, in data set [4] (dose 0.1 mg/kg IP), the “percentage change over placebo for the amount of REM sleep” value (shortened to “percentage change over placebo”) is on record as −17%. For the same molecule, the “percentage change over placebo” value in data set [4] (dose 0.32 mg/kg IP) is −26%. In addition, the “percentage change over placebo” value in data set [4] (dose 1 mg/kg IP) is −100%. The ED50 in data set [1] (setting [5]) was 0.39 mg/kg.
Molecule `CC(N)c1ccccc1-c1noc2ccccc12.Cl` (stereo not drawn) [Example 39, 2-(1,2-Benzisoxazol-3-yl)-α-methyl-benzenemethanamine Hydrochloride] had a melting point of 229 to 236 °C. The pIC50-Ih in data set [3] is listed as 5.24.
Consider `[Ba]` [barium], for which the “block of the Ih channel” value with Ih channel (1 mM barium (Ba2+)) is on record as “not blocked”.
In turn, `C=CC[C@H](N)c1ccccc1-c1noc2cc(F)ccc12.O=C(O)/C=C/C(=O)O` [13(1), (S)-(−)-2-(6-fluoro-1,2-benzisoxazol-3-yl)-α-2-propenyl-benzenemethanamine (E)-butenedioate] showed a melting point of 146 to 149 °C. For the same molecule, the pIC50-Ih in data set [3] stood at 6.13. Further, the ED50 in data set [1] (setting [5]) was found to be 1 mg/kg.
The like results for `C=CCC(N)c1ccccc1-c1noc2cc(Cl)ccc12.Cl` (stereo not drawn) [11(2), 2-(6-chloro-1,2-benzisoxazol-3-yl)-α-2-propenyl-benzenemethanamine hydrochloride] were, in that order, 174 to 185 °C, 6.44 and 0.7 mg/kg.
With `C=CC[C@@H](N)c1ccccc1-c1noc2ccccc12.Cl` [Example 12, (R)-2-(1,2-Benzisoxazol-3-yl)-α-2-propenyl-benzenemethanamine Hydrochloride], the melting point amounted to 191 °C. The same molecule showed a pIC50-Ih in data set [3] of 5.12.
Consider `CCN(c1ccccc1)c1cc(NC)[n+](C)c(C)n1` [ZD7288, 4-(N-ethyl-N-phenylamino)-1,2-dimethyl-6-(methyiamino)-pyrimidinium-chloride], for which the concentration for half-maximal inhibition (IC50) in the data set with Ih channel (Harris and Constanti 1995, read-out: IC50 for blocking Ih) was 2000 nM.

The values are drawn from US20020037885A1, “Therapeutic compounds” (priority 1999, published 2002).
